# Assay results as given in US12447156B2, “Treating progressive familial intrahepatic cholestasis (PFIC) with IBAT inhibitors” (ALBIREO AB, priority 2020, dated 2025).
# Legend:
# [1] = Solubility of odevixibat in water; format: physicochemical; settings: pH 7, 37° C.
# Text: It is desirable that the use of organic solvents in the preparation of the formulation is avoided. In some embodiments, water is used as the solvent for the preparation of the formulation. […] Because of this low solubility in water, aqueous suspensions of odevixibat can contain larger agglomerates of odevixibat, which may lead to an uneven distribution of the active pharmaceutical ingredient on the cores, i.e. the cores may contain different amounts of odevixibat, which in turn impacts dose uniformity. Accordingly, in some embodiments, the aqueous suspension of odevixibat is homogeneous. In some embodiments, a homogeneous aqueous suspension of odevixibat is sprayed onto the cores.
# [2] = test system: children with PFIC; test: Pooled analysis of PEDFIC 1 and PEDFIC 2 (up to 48 weeks): efficacy, sleep, responders vs nonresponders; format: in vivo, human
# Text: This example describes key outcomes with odevixibat in children with PFIC1 (familial intrahepatic cholestasis 1 [FIC1] deficiency) or PFIC2 ((bile salt export pump [BSEP] deficiency) based on pooled analysis of data from the phase 3 PEDFIC 1 (P1; NCT03566238) and PEDFIC 2 (P2; NCT03659916) studies. This pooled analysis covers up to 48 weeks of odevixibat treatment from P1 and through the planned P2 interim data cut. The following outcomes are described: change in serum bile acids (sBAs), change in pruritus score (measured using the PRUCISION scale; range: 0-4), evaluation of growth and sleep parameters, and safety monitoring. Mean changes in autotaxin (linked to cholestatic pruritus intensity) and plasma 7α-hydroxy-4-cholesten-3-one (p-C4; marker of bile acid synthesis) levels were also summarized.
# Patient sleep was evaluated based on caregiver report using the PRUCISION scale and via the clinician- or caregiver-reported Global Impression of Change (CGIC or CaGIC, respectively) sleep scales. Treatment response was defined as an sBA response (sBAs<65 or <102 μmol/L for patients with PFIC1 and PFIC2, respectively) or a pruritus response (a ≥1-point drop from baseline in pruritus score). Mean decreases in caregiver-reported percentage of days with scratching associated with bleeding, needing help falling asleep, and needing soothing were greater among Rs vs NRs (Table 10). At week 48, clinicians and caregivers reported that ≥88% of Rs had moderately or very much better sleep since starting odevixibat (Table 10).
# Using pooled data from these studies, changes in parameters of cholestasis, pruritus, and hepatic laboratory markers in patients who responded to odevixibat treatment (Rs) vs treatment nonresponders (NRs). Two responder definitions were examined: 1) sBA response (i.e., sBAs<65 or <102 μmol/L for PFIC1 and PFIC2, respectively) and 2) sBA response or pruritus response (i.e., a ≥1-point drop from baseline in PRUCISION score).
# [3] = patients with liver enzyme data at baseline
# [4] = patients with liver enzyme data at week 4
# [5] = patients with liver enzyme data at week 24
# [6] = patients with liver enzyme data at week 48
# [7] = pooled P1+P2, all odevixibat-treated patients
# [8] = pooled P1+P2, baseline to weeks 37-48
# [9] = sBA or pruritus response No, week 24, n 21
# [10] = sBA or pruritus response No, weeks 1-4, n 28
# [11] = sBA or pruritus response No, weeks 21-24, n 22
# [12] = sBA or pruritus response No, weeks 45-48, n 2
# [13] = sBA or pruritus response Yes, weeks 1-4, n 47
# [14] = sBA or pruritus response Yes, weeks 21-24, n 34
# [15] = sBA or pruritus response Yes, weeks 45-48, n 18
# [16] = week 4, sBA or Pruritus Response No
# [17] = week 4, sBA or Pruritus Response Yes
# [18] = week 24, sBA or Pruritus Response No
# [19] = week 24, sBA or Pruritus Response Yes
# [20] = week 48, sBA or Pruritus Response No
# [21] = week 48, sBA or Pruritus Response Yes
structure (smiles),measurement,setting,value
"CCCCC1(CCCC)CN(c2ccccc2)c2cc(SC)c(OCC(=O)N[C@@H](C(=O)N[C@@H](CC)C(=O)O)c3ccc(O)cc3)cc2S(=O)(=O)N1 [Odevixibat, 1,1-dioxo-3,3-dibutyl-5-phenyl-7-methylthio-8-(N-{(R)-α-[N-((S)-1-carboxypropyl)carbamoyl]-4-hydroxybenzyl}carbamoylmethoxy)-2,3,4,5-tetrahydro-1,2,5-benzothiadiazepine]",solubility,[1],~30 µg/mL
same,"sBA or pruritus responders, n (responder rate [n/(n + m)] * 100)",[2]; [3],48 (63) n (%)
same,"sBA responders, n (responder rate [n/(n + m)] * 100)",[2]; [3],24 (39) n (%)
same,"sBA or pruritus responders, n (responder rate [n/(n + m)] * 100)",[2]; [4],43 (61) n (%)
same,"sBA responders, n (responder rate [n/(n + m)] * 100)",[2]; [4],23 (39) n (%)
same,"sBA or pruritus responders, n (responder rate [n/(n + m)] * 100)",[2]; [5],31 (62) n (%)
same,"sBA responders, n (responder rate [n/(n + m)] * 100)",[2]; [5],19 (40) n (%)
same,"sBA or pruritus responders, n (responder rate [n/(n + m)] * 100)",[2]; [6],18 (75) n (%)
same,"sBA responders, n (responder rate [n/(n + m)] * 100)",[2]; [6],15 (63) n (%)
same,mean change from baseline to week 48 in alanine aminotransferase (ALT),[2]; [7],−82 U/L
same,mean change from baseline to week 48 in total bilirubin,[2]; [7],-18 µmol/L
same,mean change in height Z score,"[2]; pooled P1+P2, baseline to week 48",0.5
same,mean change in observer-reported percentage of days needing help falling asleep,[2]; [8],−52%
same,mean change in observer-reported percentage of days needing soothing,[2]; [8],−51%
same,mean change in observer-reported percentage of days seeing blood due to scratching,[2]; [8],−25%
same,mean change in observer-reported percentage of days sleeping with caregiver,[2]; [8],−40%
same,patients who met sBA response criteria,"[2]; pooled P1+P2, during the analysis period, regardless of genotype",≥ 50%
same,mean change from baseline in sBAs,"[2]; pooled P1+P2, end of the analysis period (up to 48 weeks), n=24",-213 µmol/L
same,mean change in pruritus score,"[2]; pooled P1+P2, end of the analysis period (up to 48 weeks), n=32",−1.4
same,mean change in sBAs,"[2]; pooled P1+P2, four weeks after starting odevixibat, n=68, baseline 250",-88 µmol/L
same,mean change in pruritus score,"[2]; pooled P1+P2, over the first 4-week period, n=75, baseline 2.9",−0.7
same,mean positive pruritus assessments (PPAs),"[2]; pooled P1+P2, patients with PFIC1",48%
same,mean positive pruritus assessments (PPAs),"[2]; pooled P1+P2, patients with PFIC2 (including BSEP subtypes 1 and 2)",above 60%
same,mean height Z score,"[2]; pooled P1+P2, week 48, n=20, baseline −1.9 (n=75)",−0.8
same,mean weight Z score,"[2]; pooled P1+P2, week 48, n=21, baseline −1.1 (n=75)",−0.0
same,rate of sBA or pruritus responders,"[2]; pooled P1+P2, weeks 0-24",57%
same,rate of sBA responders,"[2]; pooled P1+P2, weeks 0-24",31%
same,rate of sBA or pruritus responders,"[2]; pooled P1+P2, weeks 25-36",60%
same,rate of sBA responders,"[2]; pooled P1+P2, weeks 25-36",48%
same,rate of sBA or pruritus responders,"[2]; pooled P1+P2, weeks 37-48",65%
same,rate of sBA responders,"[2]; pooled P1+P2, weeks 37-48",59%
same,"CGIC sleep, moderately or very much better","[2]; sBA or pruritus response No, week 4, n 26",30.8%
same,"CaGIC sleep, moderately or very much better","[2]; sBA or pruritus response No, week 4, n 28",25.0%
same,"CGIC sleep, moderately or very much better",[2]; [9],33.3%
same,"CaGIC sleep, moderately or very much better",[2]; [9],23.8%
same,"CaGIC sleep, moderately or very much better","[2]; sBA or pruritus response No, week 48, n 3",33.3%
same,"CGIC sleep, moderately or very much better","[2]; sBA or pruritus response No, week 48, n 4",25.0%
same,"% Days needing help falling asleep, mean change from baseline",[2]; [10],−10.4%
same,"% Days needing soothing, mean change from baseline",[2]; [10],−6.0%
same,"% Days with scratching associated with bleeding, mean change from baseline",[2]; [10],−6.5%
same,"% days sleeping with caregiver, mean change from baseline",[2]; [10],−3.1%
same,"Number of awakenings, mean change from baseline",[2]; [10],1.3
same,"% Days needing help falling asleep, mean change from baseline",[2]; [11],−4.9%
same,"% Days needing soothing, mean change from baseline",[2]; [11],7.8%
same,"% Days with scratching associated with bleeding, mean change from baseline",[2]; [11],3.2%
same,"% days sleeping with caregiver, mean change from baseline",[2]; [11],3.1%
same,"Number of awakenings, mean change from baseline",[2]; [11],1.5
same,"% Days needing help falling asleep, mean change from baseline",[2]; [12],−1.8%
same,"% Days needing soothing, mean change from baseline",[2]; [12],4.2%
same,"% Days with scratching associated with bleeding, mean change from baseline",[2]; [12],12.5%
same,"% days sleeping with caregiver, mean change from baseline",[2]; [12],0.0%
same,"Number of awakenings, mean change from baseline",[2]; [12],−4.3
same,"CaGIC sleep, moderately or very much better","[2]; sBA or pruritus response Yes, week 4, n 39",48.7%
same,"CGIC sleep, moderately or very much better","[2]; sBA or pruritus response Yes, week 4, n 42",57.1%
same,"CaGIC sleep, moderately or very much better","[2]; sBA or pruritus response Yes, week 24, n 27",70.4%
same,"CGIC sleep, moderately or very much better","[2]; sBA or pruritus response Yes, week 24, n 32",59.4%
same,"CaGIC sleep, moderately or very much better","[2]; sBA or pruritus response Yes, week 48, n 15",93.3%
same,"CGIC sleep, moderately or very much better","[2]; sBA or pruritus response Yes, week 48, n 18",88.9%
same,"% Days needing help falling asleep, mean change from baseline",[2]; [13],−23.1%
same,"% Days needing soothing, mean change from baseline",[2]; [13],−22.5%
same,"% Days with scratching associated with bleeding, mean change from baseline",[2]; [13],−16.8%
same,"% days sleeping with caregiver, mean change from baseline",[2]; [13],−23.1%
same,"Number of awakenings, mean change from baseline",[2]; [13],-−3.1
same,"% Days needing help falling asleep, mean change from baseline",[2]; [14],−56.1%
same,"% Days needing soothing, mean change from baseline",[2]; [14],−58.8%
same,"% Days with scratching associated with bleeding, mean change from baseline",[2]; [14],−30.9%
same,"% days sleeping with caregiver, mean change from baseline",[2]; [14],−48.5%
same,"Number of awakenings, mean change from baseline",[2]; [14],-−1.9
same,"% Days needing help falling asleep, mean change from baseline",[2]; [15],−73.0%
same,"% Days needing soothing, mean change from baseline",[2]; [15],−74.6%
same,"% Days with scratching associated with bleeding, mean change from baseline",[2]; [15],−41.5%
same,"% days sleeping with caregiver, mean change from baseline",[2]; [15],−69.1%
same,"Number of awakenings, mean change from baseline",[2]; [15],−11.0
same,"ALT, change from baseline, Mean (SE)","[2]; week 4, sBA Response No",21 (16) U/L
same,"Total bilirubin, change from baseline, Mean (SE)","[2]; week 4, sBA Response No",−10 (9) μmol/L
same,"ALT, change from baseline, Mean (SE)","[2]; week 4, sBA Response Yes",−28 (37) U/L
same,"Total bilirubin, change from baseline, Mean (SE)","[2]; week 4, sBA Response Yes",−8 (4) μmol/L
same,"ALT, change from baseline, Mean (SE)",[2]; [16],9 (4) U/L
same,"Total bilirubin, change from baseline, Mean (SE)",[2]; [16],−14 (11) μmol/L
same,"ALT, change from baseline, Mean (SE)",[2]; [17],−2 (24) U/L
same,"Total bilirubin, change from baseline, Mean (SE)",[2]; [17],−6 (4) μmol/L
same,"ALT, change from baseline, Mean (SE)","[2]; week 24, sBA Response No",−10 (11) U/L
same,"Total bilirubin, change from baseline, Mean (SE)","[2]; week 24, sBA Response No",−19 (10) μmol/L
same,"ALT, change from baseline, Mean (SE)","[2]; week 24, sBA Response Yes",−67 (42) U/L
same,"Total bilirubin, change from baseline, Mean (SE)","[2]; week 24, sBA Response Yes",−23 (8) μmol/L
same,"ALT, change from baseline, Mean (SE)",[2]; [18],5 (8) U/L
same,"Total bilirubin, change from baseline, Mean (SE)",[2]; [18],−23 (13) μmol/L
same,"ALT, change from baseline, Mean (SE)",[2]; [19],−56 (27) U/L
same,"Total bilirubin, change from baseline, Mean (SE)",[2]; [19],−19 (7) μmol/L
same,"ALT, change from baseline, Mean (SE)","[2]; week 48, sBA Response No",−32 (22) U/L
same,"Total bilirubin, change from baseline, Mean (SE)","[2]; week 48, sBA Response No",−6 (14) μmol/L
same,"ALT, change from baseline, Mean (SE)","[2]; week 48, sBA Response Yes",−112 (57) U/L
same,"Total bilirubin, change from baseline, Mean (SE)","[2]; week 48, sBA Response Yes",−25 (11) μmol/L
same,"ALT, change from baseline, Mean (SE)",[2]; [20],−5 (15) U/L
same,"Total bilirubin, change from baseline, Mean (SE)",[2]; [20],1 (20) μmol/L
same,"ALT, change from baseline, Mean (SE)",[2]; [21],−108 (48) U/L
same,"Total bilirubin, change from baseline, Mean (SE)",[2]; [21],−25 (9) μmol/L
same,responders with moderately or very much better sleep since starting odevixibat (clinician and caregiver reported),"[2]; week 48, patients with sBA response or pruritus response",≥ 88%
